Test results taken from ChEMBL document CHEMBL5131540, “Optimizing Shape Complementarity Enables the Discovery of Potent Tricyclic BCL6 Inhibitors” (J Med Chem, 2022).
Values after ≈ are worked out from the molar mass of the structure shown.

Columns and labels:
[1] = Kinetic aqueous solubility of the compound in 4% DMSO/HEPES buffer at pH 8 incubated for 20 hrs by NMR analysis; type: physicochemical; settings: read-out: Kinetic_solubility
in vitro = settings: PAMPA, pH 7.4

solubility kinetic at 20 h [1] [µM]	Papp (in vitro) [×10⁻⁶ cm/s]	SMILES
190 (≈ 75.2 µg/mL)		C[C@@H]1CCOc2c(c3cc(Nc4ccnc(Cl)c4C#N)ccc3n(C)c2=O)N1
	< 0.1	CCNc1cc(=O)[nH]c2ccc(Nc3ccnc(Cl)c3C#N)cc12
